Test systems include NCI-H522 lung; K-562 leukemia; SF-268 CNS; A498 renal; SF-295 CNS; EKVX NSCLC; SK-MEL-2 melanoma; T-47D breast; SW-620 colon; HCT-116 colon.
Holding throughout (assay): NCI anticancer screen, dose series, 48 h

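Grown in 96-well plates, cells were treated for 48 hours with each compound at five concentrations. Insufficient inhibition: endpoint recorded as highest concentration tested. Abbreviation: GI50, concentration required for 50% inhibition of growth. TGI: concentration producing complete growth inhibition.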 Where only a bound is given, the exact number is not on record here.

From PubChem BioAssay (NCI) come the findings set out here.

On to `CC1(C)CC(=O)C2=C(C1)OC(N)=C(c1nc(-c3ccccc3)cs1)C2c1ccc(Br)cc1` (stereo not given), for which the GI50 in the experiment on NCI-H522 lung was 42.1 µg/mL; with K-562 leukemia it was 68.8 µg/mL; in the experiment on SF-268 CNS, 121 µg/mL; in the experiment with A498 renal it was 66.6 µg/mL; in the experiment on SF-295 CNS it was 142 µg/mL; in the experiment with EKVX NSCLC it was 64.5 µg/mL. The GI50 with SK-MEL-2 melanoma is 79 µg/mL; in the experiment with T-47D breast it was 44.6 µg/mL; with SW-620 colon, 86 µg/mL; in the experiment with HCT-116 colon it was 55.7 µg/mL. In addition, the TGI with NCI-H522 lung, in the experiment with K-562 leukemia, in the experiment on SF-268 CNS, with A498 renal, in the experiment on SF-295 CNS and with EKVX NSCLC was over 150 µg/mL throughout. For the same molecule, the TGI with SK-MEL-2 melanoma, in the experiment with T-47D breast, in the experiment with SW-620 colon and with HCT-116 colon was over 150 µg/mL each time.
For the molecule `C[C@]12CC[C@@H]3c4cc(OC(F)F)c(OS(N)(=O)=O)cc4CC[C@H]3[C@@H]1CC[C@@H]2O`, the GI50 in the experiment with NCI-H522 lung was 0.274 µM; in the experiment with K-562 leukemia, 0.364 µM; in the experiment on SF-268 CNS, 1.49 µM; in the experiment on A498 renal, 0.199 µM; in the experiment on SF-295 CNS, 0.252 µM; in the experiment with EKVX NSCLC it was 0.709 µM. Further, the GI50 in the experiment on SK-MEL-2 melanoma was 3.34 µM; in the experiment on T-47D breast it was 0.445 µM; in the experiment with SW-620 colon, 0.407 µM; with HCT-116 colon, 0.434 µM. The TGI is 14.8 µM in the experiment on NCI-H522 lung; over 100 µM in the experiment with K-562 leukemia; 60.3 µM in the experiment on SF-268 CNS; 0.86 µM in the experiment with A498 renal; 1.03 µM with SF-295 CNS; 54.8 µM in the experiment with EKVX NSCLC. Besides, the TGI with SK-MEL-2 melanoma was determined as 38.7 µM; in the experiment on T-47D breast it was 43.2 µM; with SW-620 colon it was 28.8 µM; in the experiment with HCT-116 colon it was 15 µM.
Regarding `CSc1nc2sc3c(c2c(=O)n1-c1ccc(C(C)C)cc1)CCC(=O)C3`, the GI50 with NCI-H522 lung is 1.96 µM; with K-562 leukemia it was 3.02 µM; with SF-268 CNS, 2.18 µM; in the experiment with A498 renal, 20.4 µM; with SF-295 CNS, 2.2 µM; in the experiment on EKVX NSCLC it was 3.02 µM. Moreover, the GI50 is 2.5 µM with SK-MEL-2 melanoma, 1.81 µM in the experiment on T-47D breast, 2.23 µM with SW-620 colon and 1.94 µM in the experiment with HCT-116 colon. Also, the TGI in the experiment with NCI-H522 lung is 3.72 µM; with K-562 leukemia, 9.04 µM; in the experiment on SF-268 CNS it was 5.2 µM; with A498 renal, 82.7 µM; in the experiment on SF-295 CNS it was 4.76 µM; in the experiment with EKVX NSCLC, over 100 µM. Further, the TGI with SK-MEL-2 melanoma was 5.77 µM; with T-47D breast it was 3.74 µM; with SW-620 colon, 4.56 µM; with HCT-116 colon, 3.73 µM.
For `O=C(CC1(O)C(=O)N(Cc2ccccc2)c2ccccc21)c1ccc(C(=O)NCC2CCC3(CC2)OOC2(CCCCC2)OO3)cc1` (stereo not given), the GI50 in the experiment with NCI-H522 lung is 0.24 µM; in the experiment on K-562 leukemia it was 1.72 µM; in the experiment on SF-268 CNS, 1.85 µM; with A498 renal, 2.42 µM; in the experiment on SF-295 CNS, 1.3 µM; in the experiment on EKVX NSCLC, 0.659 µM. The GI50 was 2.28 µM with SK-MEL-2 melanoma, 1.41 µM with T-47D breast, 3.56 µM in the experiment with SW-620 colon and 2.29 µM in the experiment on HCT-116 colon. Also, the TGI is 0.73 µM in the experiment on NCI-H522 lung; 4.83 µM with K-562 leukemia; 4.03 µM in the experiment with SF-268 CNS; 7.32 µM in the experiment with A498 renal; 5.11 µM in the experiment on SF-295 CNS; 2.04 µM in the experiment on EKVX NSCLC. In addition, the TGI in the experiment on SK-MEL-2 melanoma was 5.24 µM; in the experiment on T-47D breast, 4.04 µM; in the experiment with SW-620 colon, over 41.5 µM; in the experiment with HCT-116 colon, 6.13 µM.
`O=[N+]([O-])c1ccc(N2CCOCC2)c2c1no[n+]2[O-]`: the GI50 is 0.649 µM in the experiment with NCI-H522 lung; 1.65 µM in the experiment with K-562 leukemia; 0.939 µM in the experiment on SF-268 CNS; 1.17 µM in the experiment with A498 renal; 1.08 µM in the experiment on SF-295 CNS; 1.93 µM with EKVX NSCLC. In addition, the GI50 in the experiment with SK-MEL-2 melanoma is 2.06 µM; in the experiment on T-47D breast, 1.14 µM; with SW-620 colon it was 1.18 µM; in the experiment on HCT-116 colon it was 0.965 µM. Besides, the TGI in the experiment on NCI-H522 lung worked out at 2.33 µM; with K-562 leukemia, 3.57 µM; in the experiment with SF-268 CNS, 3.03 µM; in the experiment on A498 renal it was 3.2 µM; with SF-295 CNS it was 4.67 µM; with EKVX NSCLC, 6.72 µM. Further, the TGI with SK-MEL-2 melanoma worked out at 5.11 µM; with T-47D breast it was 4.58 µM; with SW-620 colon it was 2.48 µM; in the experiment with HCT-116 colon, 2.24 µM.
Consider `Nc1nc(Nc2ccccc2SSc2ccccc2Nc2nc(N)nc(C(Cl)(Cl)Cl)n2)nc(C(Cl)(Cl)Cl)n1`, for which the GI50 was 2.6 µM in the experiment on NCI-H522 lung; 3.93 µM in the experiment with K-562 leukemia; 3.1 µM in the experiment on SF-268 CNS; 24.3 µM in the experiment with A498 renal; 1.99 µM in the experiment with SF-295 CNS; 5.8 µM in the experiment with EKVX NSCLC. Also, the GI50 in the experiment with SK-MEL-2 melanoma was 13.2 µM; in the experiment on T-47D breast, 2.79 µM; in the experiment on SW-620 colon, 2.67 µM; in the experiment with HCT-116 colon, 4.82 µM. Further, the TGI with NCI-H522 lung amounted to 10.3 µM; in the experiment on K-562 leukemia, 17.7 µM; with SF-268 CNS, 13.8 µM; in the experiment on A498 renal, 88.8 µM; with SF-295 CNS, 4.75 µM; in the experiment on EKVX NSCLC, 20.4 µM. Moreover, the TGI came to 33.9 µM in the experiment on SK-MEL-2 melanoma, 39.2 µM in the experiment on T-47D breast, 7.99 µM with SW-620 colon and 16.9 µM in the experiment on HCT-116 colon.
`CC(=O)NCc1cccc(C#Cc2cncnc2Nc2ccc(OCc3cccc(F)c3)c(Cl)c2)c1`: the GI50 with NCI-H522 lung was 6.55 µM; with K-562 leukemia it was 10.1 µM; with SF-268 CNS, 16.7 µM; in the experiment on A498 renal, 3.52 µM; in the experiment on SF-295 CNS, 8.02 µM; with EKVX NSCLC, 1.46 µM. The GI50 with SK-MEL-2 melanoma was 11.8 µM; in the experiment on T-47D breast it was 9.68 µM; in the experiment with SW-620 colon, 18.3 µM; with HCT-116 colon, 9.05 µM. For the same molecule, the TGI was over 22.4 µM in the experiment with NCI-H522 lung; over 25 µM in the experiment on K-562 leukemia; over 25 µM in the experiment on SF-268 CNS; 24.8 µM in the experiment on A498 renal; over 25 µM in the experiment with SF-295 CNS; over 14.8 µM in the experiment on EKVX NSCLC. For the same molecule, the TGI in the experiment on SK-MEL-2 melanoma, with T-47D breast, with SW-620 colon and with HCT-116 colon was over 25 µM each time.
